{"source": "patent US12083079B2", "about": "“Sphingoid compounds for prophylaxis and/or therapy of a viral infection” (priority 2018, dated 2024)", "key": {"[1]": {"tested_on": "lymphocytic choriomeningitis virus (LCMV)", "assay_type": "cell-based"}, "[2]": {"assay": "Surface sphingosine in nasal mucosa after intranasal application, in situ sphingosine kinase assay", "assay_type": "in vivo", "conditions": "wild-type mice", "procedure": "Sphingosine (SPH) was applied into the nose of wild-type mice and the concentration of sphingosine on the epithelial cell surface was determined after 1, 4 and 8 hrs (a.i.: after injection of sphingosine). To this end, 10 μl, of a 10 μM or a 100 μM sphingosine solution was applied into the nostrils of wild-type mice. Controls received the solvent, i.e. octylglucopyranoside at the same concentration used when sphingosine was applied, or were left untreated. Mice were slightly and very briefly anesthetized with ether. For the intranasal application we used a blunt-end 30 g needle that was covered with a thin plastic film. The blunt-ended needle was inserted into the nostrils approximately 2 mm. Mice were sacrificed after the indicated time, the nasal bone was removed, placed on a 30° C. pre-warmed plastic plate and an area of 2 mm×2 mm was immediately incubated with 0.001 units of sphingosine kinase 1 (#6068-SK-010, R&D) in 4 μl of 150 mM sodium acetate (pH 7.4), 1 μM ATP, and 10 μCi [^32P]γATP/sample. Controls were incubated with the same buffer without sphingosine kinase or were left untreated. […] The TLC plates were analyzed with a phosphoimager. Surface sphingosine levels were determined with a standard curve of C18-sphingosine. […]"}, "[3]": {"tested_on": "epithelial cells of the nose", "assay": "Dead nasal epithelial cells after intranasal sphingosine (Trypan Blue)", "assay_type": "in vivo", "conditions": "wild-type mice, 10 μL of 10 μM or 100 μM solution intranasal; 8 hours or 24 hours", "procedure": "Sphingosine was applied into the nose of wild-type mice as in 3.2. 10 μL of a 10 μM or a 100 μM sphingosine (SPH) solution was administered into the nostrils of wild-type mice. Controls received the solvent, i.e. octylglucopyranoside at the same concentration used when sphingosine was applied, or were left untreated. Mice were anesthetized prior to application of sphingosine. Mice were sacrificed after 8 hours or 24 hours, the nasal bone was removed and incubated in Trypsin solution for 10 min to release and isolate epithelial cells. Cells were washed twice in H/S (20 mM HEPES, 132 mM NaCl, 5 mM KCl, 1 mM CaCl2), 0.7 mM MgCl2, 0.8 mM MgSO4, pH 7.4), stained with Trypan Blue (0.2% final concentration) and dead cells were counted in aliquots of 500 cells. Given is the percentage of dead cells±SD from 4 independent experiments each; *p<0.05, ANOVA."}, "[4]": {"tested_on": "rhinovirus strain RV14 (major strain)", "assay": "Rhinovirus RV14 infection of Hela cells, dead cells by Trypan Blue", "assay_type": "cell-based", "conditions": "added 10 min before or 60 min or 240 min after infection, 4 days"}, "[5]": {"tested_on": "lymphocytic choriomeningitis virus (LCMV)", "assay_type": "cell-based", "remark": "listed apart in the source"}, "Hela cells": {"tested_on": "Hela cells", "conditions": "uninfected Hela cells, 10 μM or 20 μM"}, "rhinovirus 2 (RV2)": {"tested_on": "rhinovirus 2 (RV2)", "assay": "RV2 infection of freshly isolated human epithelial cells, Hela cytotoxicity readout", "assay_type": "cell-based", "conditions": "10 μM or 20 μM, 24 hrs", "procedure": "(§1) 10^4 PFU of Rhinovirus 2 or 14 (RV2, RV14) were incubated with freshly isolated human epithelial cells for 24 hrs in the presence of 10 μM or 20 μM sphingosine (SPH) or the corresponding concentration of the solvent octylglucopyranoside (OGP), the cells were pelleted, supernatants completely removed, the cell pellets resuspended in PBS and added to Hela cells. Cells were incubated for 3 days and cytotoxicity as measurement for virus titers was determined. Shown is the mean±SD, n=4, *p<0.001 ANOVA."}, "RV1b": {"tested_on": "RV1b", "assay": "Binding of sphingosine to RV1b immobilized to agarose beads, remaining sphingosine by kinase assay", "set-up": "species or system rhinovirus", "conditions": "250 μM sphingosine in PBS (pH 7.0), 4 hrs at 4° C.", "procedure": "As a complement to the above study, RV1b (obtained from ATCC) were immobilized to agarose beads and tested for binding of sphingosine (SPH). To this end, we incubated 1 μg/ml anti-RV1b antibodies with 10^6 CFU RV1b for 1 h at 4° C. in H/S, added 50 μL agarose protein A/G beads (Santa Cruz Inc.), incubated for an additional 1 h at 4° C. and washed the immobilized precipitates 5-times in H/S. We resuspended the beads in 500 μL PBS (pH 7.0) containing 250 μM sphingosine. Samples were incubated for 4 hrs at 4° C., pelleted and aliquots of the supernatants were added to 50 mM HEPES (pH 7.4), 250 mM NaCl, 30 mM MgCl2, 0.001 units sphingosine kinase (R&D), 1 mM ATP and 10 μCi [^32P]γATP. The kinase reaction was performed for 1 hr at 30° C., stopped by addition of 20 μl 1N HCl, 800 μl CHCl3/CH3OH/1N HCl (100:200:1, v/v/v), 240 μl CHCl3 and 2 M KCl. Phases were separated, the lower phase was collected, dried, dissolved in 20 μL of CHCl3:CH3OH (1:1, v/v) and separated on Silica G60 thin layer chromatography (TLC) plates using CHCl3/CH3OH/acetic acid/H2O (90:90:15:5, v/v/v/v). The TLC plates were exposed to radiography films, spots were removed from the plates, and the incorporation of [^32P] into sphingosine measured by liquid scintillation counting. Sphingosine was determined using a standard curve of C18-SPH. […]"}, "[6]": {"tested_on": "rhinovirus strain RV2 (minor strain)", "assay": "Rhinovirus RV2 infection of Hela cells, dead cells by Trypan Blue", "assay_type": "cell-based", "conditions": "added 10 min before or 60 min or 240 min after infection, 4 days"}, "[7]": {"tested_on": "rhinovirus strain 2 (RV2)", "assay": "Intranasal RV2 infection of wild-type mice, Hela cell death bioassay of nasal bone", "assay_type": "in vivo", "conditions": "10 μL of 100 μM intranasal, 10 min prior to or 1, 4 or 8 hrs after infection, sacrificed after 24 hrs", "procedure": "Mice were infected with 10^3 PFU rhinovirus strain 2 (RV2) in 10 μL PBS. The virus was applied directly into the nose using a blunt ended, plastic coated 30 g needle, that was inserted into the nose approximately 2 mm. Sphingosine (SPH) was applied into the nose of the wild-type mice at a concentration of 100 μM solution in PBS in a volume of 10 μL. Sphingosine was applied either 10 min prior to rhinovirus infection (b.i.) or 1 hr, 4 hrs and 8 hrs after the infection (a.i.). Controls received the solvent, i.e. octylglucopyranoside (OGP) at the same concentration than used when sphingosine was applied, or were left untreated, but infected. Solutions were applied as in 3.2. Mice were sacrificed after 24 hrs, the nasal bone was removed and incubated for 4 days with Hela cells in a 24 well plate. If the nasal epithelial cells are infected, rhinovirus will be released due to the cytopathic effect of the virus and the in vivo infection can then be determined and quantified by measuring cell death of Hela cells as a bioassay. To this end, dead cells were collected, adherent cells were trypsinized, the fractions were combined, washed twice in H/S (20 mM HEPES, 132 mM NaCl, 5 mM KCl, 1 mM CaCl2), 0.7 mM MgCl2, 0.8 mM MgSO4, pH 7.4), stained with Trypan Blue (0.2% final concentration) and dead cells were counted in aliquots of 500 cells as above. […]"}, "rhinovirus 14 (RV14)": {"tested_on": "rhinovirus 14 (RV14)", "assay": "RV14 infection of freshly isolated human epithelial cells, Hela cytotoxicity readout", "assay_type": "cell-based", "conditions": "10 μM or 20 μM, 24 hrs", "procedure": "as §1"}, "HIV-1 JR-CSF": {"tested_on": "HIV-1 JR-CSF", "assay": "HIV-P24 ELISA in supernatant of infected human T cells", "assay_type": "cell-based", "conditions": "50 μM, after 7 days"}, "[8]": {"tested_on": "vesicular stomatitis virus (VSV)", "assay_type": "cell-based"}}}
{"compound": "Oc1ccc(Nc2nc(-c3ccc(Cl)cc3)cs2)cc1", "note": "[SKII, 2-(p-hydroxyanilino)-4-(p-chlorophenyl)thiazole]", "values": [{"measurement": "virus-infected cells by immunofluorescence", "setting": "[1]", "value": "inhibits the spreading of the virus"}]}
{"compound": "CCCCCCCCCCCCC/C=C/[C@@H](O)[C@@H](N)CO", "note": "[sphingosine, (2S,3R,4E)-2-amino-4-octadecene-1,3-diol]", "values": [{"measurement": "surface sphingosine concentration in nasal mucosa", "setting": "[2]; 10 μl of 10 μM or 100 μM solution into the nostrils, 1, 4 and 8 hrs", "value": "dose-dependent accumulation of sphingosine in the mucosa"}, {"measurement": "surface sphingosine concentration after washing the mucosa in PBS", "setting": "[2]; washing prior to the in situ kinase assay", "value": "reduces sphingosine accumulation"}, {"measurement": "toxic effects (percentage of dead nasal epithelial cells)", "setting": "[3]", "value": "no toxic effects on epithelial cells of the nose"}, {"measurement": "infection with RV14 (percentage of dead cells)", "setting": "[4]; 10 μM", "value": "prevented the infection"}, {"measurement": "infection with RV14 (percentage of dead cells)", "setting": "[4]; 20 μM", "value": "prevented the infection"}, {"measurement": "virus production (infectious LCMV particles in the supernatant)", "setting": "[5]", "value": "inhibits the propagation of LCMV"}, {"measurement": "effect of sphingosine itself on the cells (percentage of dead cells)", "setting": "Hela cells", "value": "had no effect on the cells"}, {"measurement": "infection of human epithelial cells by RV2 (cytotoxicity as measurement for virus titers)", "setting": "rhinovirus 2 (RV2)", "value": "abrogates infection"}, {"measurement": "binding of sphingosine to RV1b-coupled agarose beads (remaining sphingosine in the supernatant)", "setting": "RV1b", "value": "efficiently bind sphingosine"}, {"measurement": "infection with RV2 (percentage of dead cells)", "setting": "[6]; 10 μM", "value": "prevented the infection"}, {"measurement": "infection with RV2 (percentage of dead cells)", "setting": "[6]; 20 μM", "value": "prevented the infection"}, {"measurement": "infection with RV2 in vivo (percentage of dead Hela cells, bioassay)", "setting": "[7]", "value": "prevented"}, {"measurement": "infection of human epithelial cells by RV14 (cytotoxicity as measurement for virus titers)", "setting": "rhinovirus 14 (RV14)", "value": "abrogates infection"}]}
{"compound": "MP A08", "values": [{"measurement": "amount of HIV-P24 in the supernatant", "setting": "HIV-1 JR-CSF", "value": "prevents the propagation of HIV"}]}
{"compound": "sphingomyelinase", "values": [{"measurement": "virus production (infectious LCMV particles in the supernatant)", "setting": "[5]", "value": "inhibits the propagation of LCMV"}, {"measurement": "number of plaques", "setting": "[8]", "value": "inhibits the propagation of VSV"}]}
